Patent US11905553B2, “Method for nucleic acid amplification” (ST. JUDE CHILDREN'S RESEARCH HOSPITAL, INC., priority 2018, dated 2024)
Entries after “also recorded” stand apart in the source; their conditions may differ.

Columns and labels:
[1] = test system: Umbilical cord blood cells that express the stem/progenitor marker CD34; test: Direct measurement of environmental mutagenicity (DMEM): exposed single cells, PTA and single-cell sequencing; assay type: cell-based, human; conditions: for enrichment of variants in DNase I hypersensitive (DH) sites: ENU-exposed CD34+ cells vs Roadmap Epigenomics DH sites (FIG. 12D, 12E)
Excerpt: PTA was used to conduct a novel mutagenicity assay that provides a framework for performing high-resolution, genome wide human toxicogenomics studies. Previous studies such as the Ames test, relies on bacterial genetics to make measurements that are assumed to be representative of human cells while only providing limited information on the mutation number and patterns induced in each exposed cell. To overcome these limitations, a human mutagenesis system “direct measurement of environmental mutagenicity (DMEM)” was developed, wherein single human cells was exposed to an environmental compound, isolated as single cells, and subjected to single-cell sequencing to identify the new mutations induced in each cell.
Umbilical cord blood cells that express the stem/progenitor marker CD34 were exposed to increasing concentrations of the direct mutagen N-ethyl-N-nitrosourea (ENU).
ENU (CAS 759-73-9) and D-mannitol (CAS 69-65-8) were put into solution at their maximal solubility. Fresh anticoagulant-treated umbilical cord blood (CB) was obtained from St. Louis Cord Blood Bank. CB was diluted 1:2 with PBS and mononuclear cells (MNCs) were isolated by density gradient centrifugation on Ficoll-Paque Plus according to manufacturer's instructions. CB MNCs expressing CD34 were then immunomagnetically selected using the human CD34 microbead kit and magnetic cell sorting (MACS) system as per the manufacturer. Cell count and viability were assessed using the Luna FL cell counter. CB CD34+ cells were seeded at a density of 2.5×10^4 cells/mL in StemSpan SFEM supplemented with 1×CD34+ Expansion supplement, 100 units/mL of penicillin, and 100 ug/mL of streptomycin where they expanded for 96 hours before proceeding to mutagen exposure.
Expanded cord blood CD34+ cells were cultured in StemSpan SFEM supplemented with 1×CD34+ Expansion Supplement, 100 units/mL of penicillin, and 100 ug/mL of streptomycin. The cells were exposed to ENU at concentrations of 8.54, 85.4, and 854 uM, D-mannitol at 1152.8, and 11528 uM, or 0.9% sodium chloride (vehicle control) for 40 hours. Single-cell suspensions from drug-treated cells and vehicle control samples were harvested and stained for viability as described above. Single cell sorts were carried out as described above. PTA was performed and libraries were prepared using a simplified and improved protocol as per the general methods of the methods described herein, and Example 2.
Data acquired from cells in the DMEM experiments were trimmed using Trimmomatic, aligned to GRCh38 using BWA, and further processed using GATK 4.0.1 best practices without deviation from the recommended parameters. Genotyping was performed using HaplotypeCaller where joint genotypes were again filtered using standard parameters. […] The trinucleotide context of each SNV was determined by extracting the surrounding bases from the reference genome using bedtools. Mutation counts and context were visualized using ggplot2 and heatmap2 in R.
To determine whether mutations were enriched in DNase I hypersensitivity sites (DHS) in CD34+ cells, the proportion of SNVs in each sample that overlap with DHS sites from 10 CD34+ primary cell datasets produced by the Roadmap Epigenomics Project were calculated. DHS sites were extended by 2 nucleosomes, or 340 bases in either direction. Each DHS dataset was paired with a single cell sample where we determined the proportion of the human genome with at least 10× coverage in that cell which overlapped with a DHS, which was compared to the proportion of SNVs that were found within the covered DHS sites.

mice = conditions: limited sequencing of target genes; cited from earlier work
[2] = test system: leukemia cells; clone harboring an activating KRAS mutation; test: Leukemia cells in culture exposed to increasing concentrations of standard ALL chemotherapy drugs, bulk sequencing of clones; assay type: cell-based, human; conditions: for sensitivity of the clone harboring an activating KRAS mutation: pediatric ALL sample in culture, bulk sequencing (FIG. 7)
Excerpt: Single-cell exome sequencing of individual leukemia cells harboring an ETV6-RUNX1 translocation has been performed, measuring approximately 200 coding mutations per cell, only 25 of which have been present in enough cells to be detected with standard bulk sequencing in that patient. The mutation load per cell has then been incorporated with other known features of this type of leukemia, such as the replication-associated mutation rate (1 coding mutation/300 cell divisions), the time from initiation to diagnosis (4.2 years), and the population size at the time of diagnosis (100 billion cells) to create an in silico simulation of the development of the disease. It has been unexpectedly discovered that even in what has been thought to be a genetically simple cancer such as pediatric ALL, there are an estimated 330 million clones with distinct coding mutation profiles at the time of diagnosis in that patient. […] Accordingly, methods are provided for enhancing the sensitivity of detection so that clones that make up at least 0.01% (1:10,000) of the cells (box B) can be detected, as this is the stratum in which most resistant disease that causes relapse is hypothesized to reside.
Given such a massive population genetic diversity, it has been hypothesized that there are clones that are more resistant to treatment within a given patient. To test that hypothesis, the sample is placed in culture and the leukemia cells are exposed to increasing concentrations of standard ALL chemotherapy drugs. […] This approach also employed bulk sequencing of the treated samples. The use of single-cell DNA sequencing in some instances allows a determination of the diversity and clonotypes of the expanding populations.

Molecule: CCN(N=O)C(N)=O [ENU, N-ethyl-N-nitrosourea]
- mutation number of each cell ([1]; ENU 8.54, 85.4 and 854 uM, 40 hours, cord blood CD34+ cells (FIG. 12A)): dose-dependent increase in mutation number of each cell
- type of base changes induced ([1]; ENU-exposed CD34+ cells (FIG. 12B)): the most common mutations are T to A (A to T), T to C (A to G), and C to T (G to A); also recorded: C to G (G to C) transversion appears to be rare
- trinucleotide context of the SNVs ([1]; ENU-exposed CD34+ cells (FIG. 12C)): cytosine mutagenesis appears to be rare when cytosine is followed by guanine; also recorded: most thymine variants occur where adenine is present before thymine
- genomic feature annotation of the variants relative to the genome ([1]; ENU-exposed CD34+ cells (FIG. 12F)): not significantly different; also recorded: No specific enrichment was seen in specific annotations
- enrichment of variants in DNase I hypersensitive (DH) sites [1]: no enrichment of cytosine variants in DNase I hypersensitivity sites was observed; also recorded: No significant enrichment in variant locations at DH sites was identified
- enrichment of variants in DNase I hypersensitive (DH) sites ([1]; listed as N-ethyl-N-nitrosourea): No significant enrichment of cytosine variants was observed
- preference of base changes (mice): preference for T to A (A to T), T to C (A to G), and C to T (G to A) changes

Molecule: COc1cccc2c1C(=O)c1c(O)c3c(c(O)c1C2=O)C[C@@](O)(C(C)=O)C[C@@H]3O[C@H]1C[C@H](N)[C@H](O)[C@H](C)O1 [daunorubicin]
- sensitivity of the clone harboring an activating KRAS mutation [2]: more sensitive; also recorded: killed

Molecule: C[C@]12C=CC(=O)C=C1CC[C@@H]1[C@@H]2[C@@H](O)C[C@@]2(C)[C@H]1CC[C@]2(O)C(=O)CO [prednisolone]
- sensitivity of the clone harboring an activating KRAS mutation [2]: more sensitive; also recorded: killed

Molecule: asparaginase
- behaviour of the clone harboring an activating KRAS mutation ([2]; lowest dose of asparaginase, pediatric ALL sample in culture (FIG. 7)): continued to expand
